PubChem BioAssay (NCI)
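Cultured in 96-well plates, cells were exposed to test compound for 48 hours across five concentrations. At the TGI there is no net growth.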

Columns and labels:
Test in all cases: NCI-60 cell line screen, 48 h
NCI-H226 lung = test system: NCI-H226 lung
MDA-MB-435 = test system: MDA-MB-435
MOLT-4 leukemia = test system: MOLT-4 leukemia
OVCAR-8 ovarian = test system: OVCAR-8 ovarian
MCF7 breast = test system: MCF7 breast
T-47D breast = test system: T-47D breast
HCT-116 colon = test system: HCT-116 colon
NCI-H23 lung = test system: NCI-H23 lung
OVCAR-5 ovarian = test system: OVCAR-5 ovarian
UACC-257 melanoma = test system: UACC-257 melanoma
HL-60(TB) leukemia = test system: HL-60(TB) leukemia
HCT-15 colon = test system: HCT-15 colon
SF-268 CNS = test system: SF-268 CNS
NCI-H522 lung = test system: NCI-H522 lung
LOX IMVI melanoma = test system: LOX IMVI melanoma
SR leukemia = test system: SR leukemia
HOP-92 NSCLC = test system: HOP-92 NSCLC
CAKI-1 renal = test system: CAKI-1 renal
U251 CNS = test system: U251 CNS
SF-295 CNS = test system: SF-295 CNS
SK-OV-3 ovarian = test system: SK-OV-3 ovarian
KM12 colon = test system: KM12 colon
UO-31 renal = test system: UO-31 renal
PC-3 prostate = test system: PC-3 prostate
RXF 393 renal = test system: RXF 393 renal
OVCAR-3 ovarian = test system: OVCAR-3 ovarian
COLO 205 colon = test system: COLO 205 colon
SNB-19 CNS = test system: SNB-19 CNS
HOP-62 NSCLC = test system: HOP-62 NSCLC
MALME-3M melanoma = test system: MALME-3M melanoma
HS 578T breast = test system: HS 578T breast
EKVX NSCLC = test system: EKVX NSCLC
HT29 colon = test system: HT29 colon
CCRF-CEM leukemia = test system: CCRF-CEM leukemia
UACC-62 melanoma = test system: UACC-62 melanoma
786-0 renal = test system: 786-0 renal
SF-539 CNS = test system: SF-539 CNS
M14 melanoma = test system: M14 melanoma
HCC-2998 colon = test system: HCC-2998 colon
SN12C renal = test system: SN12C renal
RPMI-8226 leukemia = test system: RPMI-8226 leukemia
K-562 leukemia = test system: K-562 leukemia
ACHN renal = test system: ACHN renal
NCI/ADR-RES ovarian = test system: NCI/ADR-RES ovarian
SW-620 colon = test system: SW-620 colon
MDA-N = test system: MDA-N
NCI-H460 lung = test system: NCI-H460 lung
A498 renal = test system: A498 renal
MDA-MB-231 breast = test system: MDA-MB-231 breast
SNB-75 CNS = test system: SNB-75 CNS
SK-MEL-28 melanoma = test system: SK-MEL-28 melanoma
IGROV1 ovarian = test system: IGROV1 ovarian
DU-145 prostate = test system: DU-145 prostate
SK-MEL-5 melanoma = test system: SK-MEL-5 melanoma
OVCAR-4 ovarian = test system: OVCAR-4 ovarian
A549 NSCLC = test system: A549 NSCLC

Measured: TGI

CC1(C)C(O)c2ccccc2OC1N1CCN(C2Oc3ccccc3C(O)C2(C)C)CC1 (stereo unspecified)
> 100 µM: all assays above
